Laboratory results taken from the NIST ThermoML archive (doi:10.1016/j.jct.2016.09.005).

Conditions: Liquid, Brillouin Light Scattering

CC(C)OC(C)C [diisopropyl ether]
Conditions	speed of sound [m/s]
302.38 K, 10000 kPa	1087.1
302.39 K, 4000 kPa	1011.9
302.48 K, 5500 kPa	1029.7
302.8 K, 8500 kPa	1052.4
302.91 K, 2500 kPa	1002.7
302.96 K, 1000 kPa	986.08
303.07 K, 7000 kPa	1037.8
307.45 K, 4000 kPa	987.23
307.61 K, 10000 kPa	1066.1
307.86 K, 5500 kPa	1009.4
307.87 K, 8500 kPa	1038.9
308 K, 1000 kPa	965.01
308.01 K, 7000 kPa	1020.5
308.28 K, 2500 kPa	974.68
312.8 K, 10000 kPa	1051
312.81 K, 8500 kPa	1010.4
312.88 K, 7000 kPa	995.2
312.91 K, 2500 kPa	961.97
312.92 K, 5500 kPa	979.14
313.05 K, 1000 kPa	943.07
313.14 K, 4000 kPa	969.4
317.72 K, 10000 kPa	1030.2
318.01 K, 5500 kPa	968.08
318.11 K, 1000 kPa	924.03
318.13 K, 8500 kPa	996.14
318.14 K, 2500 kPa	928.92
318.38 K, 7000 kPa	974.91
318.49 K, 4000 kPa	951.1
322.82 K, 10000 kPa	1007.1
323.15 K, 7000 kPa	960.56
323.3 K, 8500 kPa	972.88
323.31 K, 2500 kPa	912.04
323.5 K, 5500 kPa	943.6
323.62 K, 1000 kPa	901.5
323.71 K, 4000 kPa	924.8
327.56 K, 10000 kPa	994.72
327.75 K, 8500 kPa	964.89
327.97 K, 1000 kPa	881.1
328.08 K, 2500 kPa	887.66
328.1 K, 4000 kPa	901.06
328.13 K, 7000 kPa	936.62
328.17 K, 5500 kPa	923.15
332.93 K, 10000 kPa	963.31
332.94 K, 2500 kPa	869.98
333.01 K, 7000 kPa	920.95
333.08 K, 1000 kPa	855
333.25 K, 8500 kPa	943.92
333.31 K, 4000 kPa	888.08
333.57 K, 5500 kPa	897.12
337.63 K, 5500 kPa	882.64
337.69 K, 1000 kPa	846.25
337.75 K, 2500 kPa	857.76
337.85 K, 10000 kPa	946.87
337.89 K, 8500 kPa	917.48
337.93 K, 4000 kPa	867.64
338.11 K, 7000 kPa	896.43
343.33 K, 1000 kPa	819.28
343.57 K, 8500 kPa	904.65
343.67 K, 4000 kPa	845.53
343.79 K, 7000 kPa	878.38
343.82 K, 2500 kPa	827.84
343.88 K, 10000 kPa	923.89
343.97 K, 5500 kPa	864.56
347.31 K, 10000 kPa	915.04
347.41 K, 2500 kPa	807.03
347.59 K, 1000 kPa	802.59
347.69 K, 4000 kPa	832.86
347.76 K, 8500 kPa	887.44
347.81 K, 5500 kPa	843.4
347.81 K, 7000 kPa	867.06
352.94 K, 4000 kPa	804.7
353.38 K, 8500 kPa	862.02
353.45 K, 1000 kPa	775.82
353.59 K, 2500 kPa	792.6
353.6 K, 5500 kPa	819.82
353.71 K, 7000 kPa	845.61
353.81 K, 10000 kPa	893.76
358.06 K, 10000 kPa	870.54
358.52 K, 8500 kPa	846.91
358.55 K, 5500 kPa	807.15
358.76 K, 1000 kPa	755.17
358.93 K, 2500 kPa	760.2
358.96 K, 4000 kPa	782.98
359.03 K, 7000 kPa	821.85
362.67 K, 1000 kPa	737.96
362.78 K, 5500 kPa	786.13
362.9 K, 10000 kPa	855.96
362.95 K, 8500 kPa	828.91
363.08 K, 7000 kPa	809.07
363.21 K, 2500 kPa	747.41
363.41 K, 4000 kPa	767.15
367.56 K, 7000 kPa	793.16
367.57 K, 5500 kPa	769.09
367.78 K, 4000 kPa	751.56
367.82 K, 8500 kPa	809.14
367.96 K, 10000 kPa	835.29
368.03 K, 1000 kPa	715.17
368.26 K, 2500 kPa	726.3
372.68 K, 10000 kPa	816.27
372.8 K, 7000 kPa	771.64
373.15 K, 5500 kPa	753.88
373.21 K, 8500 kPa	788.43
373.29 K, 2500 kPa	712.12
373.37 K, 4000 kPa	726.56
373.57 K, 1000 kPa	697.04
377.41 K, 1000 kPa	679.66
377.54 K, 7000 kPa	749.64
377.85 K, 4000 kPa	712.4
377.85 K, 5500 kPa	728.98
377.97 K, 8500 kPa	770.84
378.05 K, 2500 kPa	690.57
378.3 K, 10000 kPa	803.55
382.72 K, 1000 kPa	654.9
382.77 K, 7000 kPa	734.01
382.78 K, 10000 kPa	787
382.83 K, 5500 kPa	710.48
382.88 K, 8500 kPa	754.35
383.06 K, 2500 kPa	665.89
383.26 K, 4000 kPa	691.26
387.78 K, 4000 kPa	674.22
388 K, 7000 kPa	713.08
388.09 K, 5500 kPa	694.59
388.3 K, 8500 kPa	735.65
388.31 K, 2500 kPa	653.57
388.68 K, 1000 kPa	634.3
388.86 K, 10000 kPa	760.66
392.26 K, 2500 kPa	635.1
392.28 K, 5500 kPa	675.48
392.33 K, 7000 kPa	701.13
392.5 K, 4000 kPa	658.79
392.65 K, 10000 kPa	747.04
392.79 K, 8500 kPa	722.68
393.19 K, 1000 kPa	615.78
397.81 K, 4000 kPa	632.66
397.95 K, 2500 kPa	613.31
398.22 K, 5500 kPa	653.67
398.25 K, 1000 kPa	589.15
398.32 K, 8500 kPa	702.44
398.37 K, 7000 kPa	674.76
398.9 K, 10000 kPa	728.83
402.67 K, 7000 kPa	662.53
402.77 K, 5500 kPa	638.47
402.88 K, 2500 kPa	590.27
403.23 K, 8500 kPa	683.98
403.4 K, 4000 kPa	612.03
403.45 K, 1000 kPa	570.56
403.45 K, 10000 kPa	709.11
407.64 K, 5500 kPa	623.08
407.75 K, 10000 kPa	693.65
408.1 K, 7000 kPa	642.44
408.23 K, 8500 kPa	667.12
408.31 K, 4000 kPa	592.12
408.37 K, 2500 kPa	571.15
408.65 K, 1000 kPa	544.68
412.43 K, 2500 kPa	550.12
412.43 K, 5500 kPa	606.9
412.66 K, 1000 kPa	530.21
412.7 K, 4000 kPa	576.58
412.83 K, 10000 kPa	681.56
412.95 K, 8500 kPa	646.94
413.28 K, 7000 kPa	622.07
418.22 K, 2500 kPa	532.67
418.42 K, 8500 kPa	627.35
418.54 K, 5500 kPa	583.39
418.59 K, 10000 kPa	659.95
418.87 K, 7000 kPa	603.43
418.91 K, 4000 kPa	554.62
419.01 K, 1000 kPa	502.48
423.21 K, 1000 kPa	482.17
423.5 K, 4000 kPa	536.96
423.62 K, 8500 kPa	613.79
423.75 K, 7000 kPa	590.42
423.79 K, 5500 kPa	567.31
423.9 K, 10000 kPa	640.34
424.09 K, 2500 kPa	502.49
427.41 K, 7000 kPa	578.56
427.66 K, 1000 kPa	460.04
427.92 K, 8500 kPa	597.25
428.03 K, 4000 kPa	520.63
428.26 K, 2500 kPa	490.5
428.45 K, 5500 kPa	546.98
428.53 K, 10000 kPa	625.16
432.35 K, 10000 kPa	618.58
432.63 K, 5500 kPa	529.89
432.77 K, 8500 kPa	581.79
432.83 K, 7000 kPa	558.11

Conditions	speed of sound [m/s]
303.08 K	986.38
318.27 K	915.66
333.62 K	852.5
347.96 K	790.74
362.87 K	731.21
378.14 K	662.26
393.15 K	593.47
402.97 K	552.35
412.75 K	514.15
422.75 K	469.11
432.74 K	426.77
